Experimental data from PMC7696671, “P2Y2 and P2X4 Receptors Mediate Ca^2+ Mobilization in DH82 Canine Macrophage Cells” (International Journal of Molecular Sciences, 2020).

Legend:
Format in all cases: cell-based
P2Y2 receptor [1] = biological target: T1, P2Y2 receptor (Canis lupus, UniProt A0A8I3MZ62); assay: Fura-2 Ca2+ assay in DH82 cells, inhibition of the response to […] UTP (peak)
T1 construct: gene P2RY2; endogenous receptor in DH82 canine macrophage cells

P2Y2 receptor [2] = biological target: T1, P2Y2 receptor; assay: Fura-2 Ca2+ assay in DH82 cells, agonist peak response; blocked by AR-C118925 in Ca2+-free solution
P2Y2 receptor [3] = biological target: T1, P2Y2 receptor; assay: Fura-2 Ca2+ assay in DH82 cells, agonist peak response

T1 sequence (A0A8I3MZ62 1-377): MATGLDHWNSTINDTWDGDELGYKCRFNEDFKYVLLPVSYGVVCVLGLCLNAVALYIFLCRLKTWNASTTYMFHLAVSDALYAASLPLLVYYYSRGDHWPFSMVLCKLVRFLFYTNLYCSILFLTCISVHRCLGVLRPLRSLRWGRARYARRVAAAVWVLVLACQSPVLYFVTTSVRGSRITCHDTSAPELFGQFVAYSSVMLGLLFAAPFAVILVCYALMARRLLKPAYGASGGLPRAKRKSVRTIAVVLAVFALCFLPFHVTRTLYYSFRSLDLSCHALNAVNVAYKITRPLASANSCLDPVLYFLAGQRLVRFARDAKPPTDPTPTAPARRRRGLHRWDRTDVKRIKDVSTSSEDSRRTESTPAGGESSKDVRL

IC50 (P2Y2 receptor [1]) [pIC50]	SMILES	other results
6.61 ± 0.09	Cc1ccc2c(c1)C=Cc1cc(C)ccc1C2c1cn(Cc2ccc(C(=O)Nc3nn[nH]n3)o2)c(=O)[nH]c1=S [AR-C118925]	
3.70 ± 0.05	Cc1ccc(C(=O)Nc2ccc(S(=O)(=O)O)c3cc(S(=O)(=O)O)cc(S(=O)(=O)O)c23)cc1NC(=O)c1cccc(NC(=O)Nc2cccc(C(=O)Nc3cc(C(=O)Nc4ccc(S(=O)(=O)O)c5cc(S(=O)(=O)O)cc(S(=O)(=O)O)c45)ccc3C)c2)c1 [suramin]	
	Nc1ncnc2c1ncn2[C@@H]1O[C@H](COP(=O)(O)OP(=O)(O)OP(=O)(O)O)[C@@H](O)[C@H]1O [ATP]	Peak Ca^2+ Response / pEC50 (P2Y2 receptor [2]): 5.88 ± 0.05 pEC50
	O=c1ccn([C@@H]2O[C@H](CO[P@@](=O)(O)O[P@@](=O)(O)OP(=O)(O)O)[C@@H](O)[C@H]2O)c(=O)[nH]1 [UTP]	Peak Ca^2+ Response / pEC50 (P2Y2 receptor [3]): 6.16 ± 0.09 pEC50
